Laboratory results: PMC4506515, “Structural basis for catalytically restrictive dynamics of a high-energy enzyme state” (Nature Communications, 2015)

Key:
adenylate kinase (AdK) [1] = target: T1, adenylate kinase (AdK) (Escherichia coli, UniProt P69441); test: isothermal titration calorimetry, single-site fit; assay type: binding; settings: 30 mM MOPS, 50 mM NaCl, pH 7.0; measured at 15, 25, 35 and 45 °C
T1 construct: full-length, no tag mentioned; pEAK-91 vector, AdK promotor, BL21(DE3); Blue Sepharose and size exclusion
T1 sequence (P69441 whole entry): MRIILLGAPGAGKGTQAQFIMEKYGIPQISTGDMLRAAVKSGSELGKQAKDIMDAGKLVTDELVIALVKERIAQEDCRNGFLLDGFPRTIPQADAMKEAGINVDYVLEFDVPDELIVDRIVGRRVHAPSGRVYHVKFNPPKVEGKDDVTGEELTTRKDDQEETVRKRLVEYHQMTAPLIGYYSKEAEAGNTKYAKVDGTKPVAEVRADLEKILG

adenylate kinase (AdK) [2] = target: T2, adenylate kinase (AdK) (Escherichia coli, UniProt P69441, Y171W); test: isothermal titration calorimetry, single-site fit; assay type: binding
T2 construct: full-length, no tag mentioned; pEAK-91 vector, AdK promotor, BL21(DE3); Blue Sepharose and size exclusion
T2 sequence (P69441 whole entry Y171W): as the sequence (P69441 whole entry) above, with Y171W counted along it

adenylate kinase (AdK) [3] = target: T3, adenylate kinase (AdK) (Escherichia coli, UniProt P69441, P177A); test: isothermal titration calorimetry, single-site fit; assay type: binding; settings: 30 mM MOPS, 50 mM NaCl, pH 7.0; measured at 15, 25, 35 and 45 °C
T3 construct: full-length, no tag mentioned; pEAK-91 vector, AdK promotor, BL21(DE3); Blue Sepharose and size exclusion
T3 sequence (P69441 whole entry P177A): as the sequence (P69441 whole entry) above, with P177A counted along it

adenylate kinase (AdK) [4] = target: T1, adenylate kinase (AdK); test: NMR spectra of the ADP-saturated enzyme; assay type: binding; settings: 30 mM MOPS, 50 mM NaCl, pH 7.0; 25 °C
adenylate kinase (AdK) [5] = target: T1, adenylate kinase (AdK); test: coupled spectroscopic assay, […] nm (NADH); assay type: biochemical; settings: 0.3 mM AMP, 2 mM MgCl2, 100 mM Tris, 80 mM KCl, pH 7.5; 15, 25, 35 and 45 °C

`Nc1ncnc2c1ncn2[C@@H]1O[C@H](COP(=O)(O)OP(=O)(O)OP(=O)(O)OP(=O)(O)OP(=O)(O)OC[C@H]2O[C@@H](n3cnc4c(N)ncnc43)[C@H](O)[C@@H]2O)[C@@H](O)[C@H]1O` [Ap5a, P1,P5-di(adenosine-5′)pentaphosphate] was tested, and the KD (adenylate kinase (AdK) [1]) was “KD values for the wild type, P177A and Y171W variants”, the Kd (adenylate kinase (AdK) [2]) was 250 ± 60 nM and the KD (adenylate kinase (AdK) [3]) was “KD values for the wild type, P177A and Y171W variants”.

For `Nc1ncnc2c1ncn2[C@@H]1O[C@H](COP(=O)(O)OP(=O)(O)O)[C@@H](O)[C@H]1O` [ADP], the “NMR spectra of the ADP-saturated enzyme” value (adenylate kinase (AdK) [4]) was “wild-type AdK in complex with saturating concentrations of the natural substrate ADP”.

`Nc1ncnc2c1ncn2[C@@H]1O[C@H](COP(=O)(O)OP(=O)(O)OP(=O)(O)O)[C@@H](O)[C@H]1O` [ATP] was tested, and the KM (adenylate kinase (AdK) [5]) was “ATP affinity, KM, for the used spectroscopic assay”.
